A word on the inhibition: it is the percentage by which the read-out fell short of the control.

Drawing on US20040229895A1, “Tetracyclic benzamide derivatives and methods of use thereof” (Inotek Pharmaceuticals Corporation, priority 2003, published 2004), this text covers inhibition for three compounds.

For the experiment, the target named is T1, PARP (Mus musculus, UniProt P11103).
T1 construct: endogenous in cells; host or cells: RAW mouse macrophages
As to the kind of experiment: PARP activation in peroxynitrite-stimulated cultured macrophages, whole-cell based assay (3H-NAD+ incorporation). The conditions noted are these: RAW mouse macrophages, peroxynitrite-induced PARP activation, 10 min pretreatment; for inhibition at 0.3 µM: 300 nM; for inhibition at 0.1 µM: 100 nM. How it is done: RAW mouse macrophages were cultured in DMEM medium with high glucose and supplemented with 10% fetal bovine serum. Cells were used at 80% confluence in 12-well plates. Cells were pretreated with various concentrations (100 nM-1 μM) of a Tetracyclic Benzamide Derivative for 10 min. Peroxynitrite, a prototypical oxidant which induces DNA single strand breakage, was used to induce PARP activation. Peroxynitrite was diluted in phosphate buffered saline (PBS) (pH 11.0) and added to the cells in a bolus of 50 μl. Cells were then incubated for 20 min. […] After the 20 min incubation, the cells were spun, the medium was aspirated and the cells were resuspended in 0.5 mL assay buffer (56 mM HEPES pH 7.5, 28 mM KCl, 28 mM NaCl, 2 mM MgCl2, 0.01% w/v digitonin and 0.125 μM NAD^+ and 0.5 μCi/ml ^3H-NAD^+). Following an incubation in assay buffer, (10 min at 37° C.), PARP activity was measured as follows: 200 μl ice cold 50% w/v TCA was added and the samples were incubated for 4 h at 4° C. Samples were then spun (10 min @ 10,000 g) and pellets washed twice with ice cold 5% w/v TCA and solubilized overnight in 250 μl 2% w/v SDS/0.1 N NaOH at 37° C. The contents of the tubes were added to 6.5 mL ScintiSafe Plus scintillation liquid (Fisher Scientific) and radioactivity was determined using a liquid scintillation counter (Wallac, Gaithersburg, Md.).

T1 sequence (P11103 whole entry): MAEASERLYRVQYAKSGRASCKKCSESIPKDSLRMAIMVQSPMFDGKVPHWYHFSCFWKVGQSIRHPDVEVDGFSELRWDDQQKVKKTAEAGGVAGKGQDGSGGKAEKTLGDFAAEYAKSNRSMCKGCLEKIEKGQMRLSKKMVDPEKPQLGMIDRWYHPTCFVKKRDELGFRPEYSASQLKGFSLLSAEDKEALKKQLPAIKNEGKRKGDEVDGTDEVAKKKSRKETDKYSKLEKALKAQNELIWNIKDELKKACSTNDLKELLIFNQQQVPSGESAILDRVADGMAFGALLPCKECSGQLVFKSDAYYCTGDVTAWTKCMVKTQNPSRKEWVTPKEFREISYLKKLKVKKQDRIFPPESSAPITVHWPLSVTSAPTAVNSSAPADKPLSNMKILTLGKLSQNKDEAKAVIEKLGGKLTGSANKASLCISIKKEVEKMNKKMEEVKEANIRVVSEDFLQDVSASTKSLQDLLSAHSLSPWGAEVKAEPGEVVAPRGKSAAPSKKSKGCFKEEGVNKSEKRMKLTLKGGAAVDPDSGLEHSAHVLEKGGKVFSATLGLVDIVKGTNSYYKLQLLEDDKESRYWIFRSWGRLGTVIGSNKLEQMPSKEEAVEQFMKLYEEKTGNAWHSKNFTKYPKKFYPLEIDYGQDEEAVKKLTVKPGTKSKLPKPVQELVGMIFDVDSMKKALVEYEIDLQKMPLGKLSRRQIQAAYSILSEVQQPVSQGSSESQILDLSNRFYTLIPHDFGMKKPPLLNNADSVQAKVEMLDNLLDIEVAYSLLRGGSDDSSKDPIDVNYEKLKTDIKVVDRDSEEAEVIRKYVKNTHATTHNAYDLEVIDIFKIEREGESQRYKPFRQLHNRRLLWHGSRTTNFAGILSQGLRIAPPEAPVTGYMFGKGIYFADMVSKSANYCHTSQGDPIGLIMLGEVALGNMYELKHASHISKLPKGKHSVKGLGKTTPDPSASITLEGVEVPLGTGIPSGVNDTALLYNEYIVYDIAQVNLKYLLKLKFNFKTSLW

For `O=c1[nH]c2c(c3ccccc13)-c1ccc(S(=O)(=O)NCCCN3CCOCC3)cc1C2` [Compound 11a, 5-Oxo-5,7-dihydro-6H-indeno[2,1-c]isoquinoline-9-sulfonic acid (3-morpholin-4-yl-propyl)-amide], the inhibition at 0.3 µM amounted to 9% and the inhibition at 1 µM was 70%.
With `CC(=O)Oc1nc2c3ccccc3oc2c2ccccc12` [Compound 16g, Acetic acid 11-oxa-6-aza-benzo[a]fluoren-5-yl ester], the inhibition at 0.1 µM was found to be 40%, the inhibition at 0.3 µM is 66% and the inhibition at 1 µM turned out to be 67%.
As to `Cc1ccc2c(n1)oc1c3ccccc3c(=O)[nH]c21` [Compound 26a, 9-Methyl-6H-11-oxa-6,10-diaza-benzo[a]fluoren-5-one], the inhibition at 0.1 µM was 36%, the inhibition at 0.3 µM was found to be 54% and the inhibition at 1 µM is 61%.
